From patent publication US20230027854A1, “ISOXAZOLE DERIVATIVES TARGETING TACC3 AS ANTICANCER AGENTS” (A2A Pharmaceuticals, inc., priority 2019, published 2023)

Key:
JIMT-1 cells [1] = test: Colony formation assay; format: cell-based, human; conditions: 12 days
Method: For monolayer culture, single-cell suspensions of JIMT-1 cells (3×10^3 cells/well) were plated in a 12-well plate. […] In order to test the colony formation capacity of MCF-12A cells during TACC3 overexpression, MCF-12A cells (2×10^5) were seeded into 6-well plates and TACC3 trasnfection was performed next day. 48 h following transfection, cells were counted and 1×10^3 cells/well were plated into 12-well plates. For both experimental setups, the media were refreshed every 4 days, and cells were incubated for 12 days. Cells were then fixed with 2% paraformaldehyde for 15 min and stained with 1% crystal violet (Merck, Darmstadt, Germany) for 15 min at RT. Surviving colonies (composed of at least 50 cells) were counted with ImageJ software (NIH).

JIMT-1 cells [2] = test: Western blot of mitotic arrest, DNA damage and apoptosis markers; format: cell-based, human; conditions: 24 hours, dose response
Method: JIMT-1, MDA-MB-436, MDA-MB-157 and BT-474 T-DM1R cell lines were tested with respect to their response to these three drugs. […] Although higher KHS101 doses was included, which were used by others (Campo & Breuer, 2018), an induction of these markers was only observed at very high doses.

JIMT-1 cells [3] = test: Annexin V/PI staining; format: cell-based, human; conditions: 500 nM, 72 h; vehicle 4.1%
JIMT-1 cells [4] = test: Immunofluorescence of aberrant spindle formation; format: cell-based, human; conditions: highest dose, 12 h
Text: The presence of spindle defects activates the spindle assembly checkpoint (SAC) that further leads to mitotic arrest to provide the necessary time for repairing the spindle defects (Musacchio and Salmon 2007). […] To further test the contribution of an active SAC signaling to compound 5-induced mitotic arrest, DNA damage and cell death, we inhibited the SAC kinase, Mps1 using a specific inhibitor (TC Mps1 (Choi, Min et al. 2017)) in compound 5-treated cells, and analyzed the expression of relevant markers.
Immunofluorescence staining of JIMT-1 cells were performed as previously described (Cizmecioglu, Arnold et al. 2010). Basically, 1.5×10^5 JIMT-1 cells/well were seeded on glass coverslip in 6-well plates. […] Then, they are fixed with ice-cold methanol for 10 min at −20° C. Cells were then blocked with 3% BSA in PBS solution for 1 hour at RT and incubated with primary and secondary antibodies for 1 hour at RT. Cells were counter stained with DAPI for 5 min (0.01 μg/ml). Lastly, cover slides were mounted using ImmunoHistomounth (Santa Cruz). Images were taken with an upright fluorescent microscope equipped with DIC prisms (upright).

NCI-60 human cell lines = test: NCI-60 five-dose screen; format: cell-based
Method: Detailed screening methodology can be accessed from https://dtp.cancer.gov/discovery_development/nci-60/methodology.htm webpage. Briefly, 24 h after cell seeding into 96-well plates, cells were treated with 5-log M concentration range of the compound for 2 days. Cytotoxicity was assessed using SRB assay. The data presented in the FIG.s are the average values of both experiments.

JIMT-1 xenografts = test: JIMT-1 xenograft tumor growth in female nude mice; format: in vivo
EMT6 = conditions: 25 mg/kg every day orally
Method: Murine triple negative breast cancer (TNBC) cell line, EMT6, which is a fast-growing and highly aggressive model (Yang, Yang et al. 2017), was injected into MFPs of syngeneic Balb/c mice.
Six-to-eight-week-old female athymic nude or Balb/c mice were housed with a temperature-controlled and 12-hour light/12-hour dark cycle environment. This study was carried out in accordance with Institutional Animal Care and Use Committee of Bilkent University and performed according to the institution's guidelines and animal research principles. For in vivo breast cancer tumor growth in nude mice, 4×10^6 JIMT-1 cells were prepared in 150 μl of 1:1 DMEM and Matrigel (Corning, N.Y., USA), v/v) and injected into the mammary fat pads (MFP) of female nude mice. Mouse weight and tumor volume were measure daily using calipers. Tumor volumes were calculated as length×width^2×0.5. Once the tumor volume had reached about 90-100 mm^3, xenografts were randomized into groups. […] Mice were sacrificed 20-30 days after initiation of the treatments, and the tumors were collected and stored for subsequent analyses. […] 1×10^6 EMT-6 cells were prepared in PBS and injected into MFPs of mice. […] Survival was calculated using a predefined tumor volume cut-off of 1500 mm^3.

[5] = Log D, octanol/sodium phosphate buffer; format: physicochemical; conditions: octanol/sodium phosphate buffer (50 mM, pH 7.4); read-out: log D7.4
CYP2CD6 = CYP2CD6 (Homo sapiens, UniProt P10635); conditions: read-out: IC50 CYP2CD6; human liver microsomes
Sequence of CYP2CD6 (P10635 whole entry): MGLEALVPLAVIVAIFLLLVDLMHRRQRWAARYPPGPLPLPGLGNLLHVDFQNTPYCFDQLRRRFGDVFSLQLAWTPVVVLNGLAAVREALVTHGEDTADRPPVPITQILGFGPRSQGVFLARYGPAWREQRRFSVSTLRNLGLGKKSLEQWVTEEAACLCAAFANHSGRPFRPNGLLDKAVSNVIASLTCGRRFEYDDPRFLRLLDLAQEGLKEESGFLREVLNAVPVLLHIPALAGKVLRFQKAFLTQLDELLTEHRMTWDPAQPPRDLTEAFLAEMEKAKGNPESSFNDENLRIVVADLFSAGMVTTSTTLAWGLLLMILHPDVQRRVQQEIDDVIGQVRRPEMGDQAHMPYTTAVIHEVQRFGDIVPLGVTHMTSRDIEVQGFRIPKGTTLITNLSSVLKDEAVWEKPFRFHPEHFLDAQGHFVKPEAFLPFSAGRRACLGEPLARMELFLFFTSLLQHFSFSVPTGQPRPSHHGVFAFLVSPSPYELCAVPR

[6] = 2 mg/kg (po. or i.v) or 5 mg/kg (po.) every two days for 30 days
[7] = 5 mg/kg oral every other day for 30 days

Compound: COc1ccc(-c2cc(Nc3ccnc(N4CCOCC4)n3)on2)cc1 [Compound 5]
- average colony number compared with other two inhibitors at the same doses (JIMT-1 cells [1]): significantly lower
- induction of mitotic arrest, DNA damage and apoptosis markers (JIMT-1 cells [2]): dose-dependent manner
- fraction of apoptotic cells (Annexin V/PI) (JIMT-1 cells [3]): 45.6%
- frequency of multipolar spindles (JIMT-1 cells [4]): 73.4%
- share of NCI-60 cell lines with less than 1 μM GI50 value (NCI-60 human cell lines): ~90%
- GI50 (NCI-60 human cell lines; Homo sapiens, read-out: 50% growth inhibition (GI50) value, almost all cell lines): < 1 µM
- body weight of mice (JIMT-1 xenografts; [6]): did not have any negative effect on the body weight
- tumor growth rate compared with control group (JIMT-1 xenografts; [6]): decreased
- body weight of mice (JIMT-1 xenografts; [7]): no major effect on the body weight
- tumor growth as compared to SPL-B (JIMT-1 xenografts; [7]): significant reduction of tumor growth
- mice weight (JIMT-1 xenografts; 25 mg/kg, po., 23 days): did not affect the mice weight
- tumor growth compared to vehicle-treated mice (JIMT-1 xenografts; 25 mg/kg, po., 23 days): very significant reduction of tumor growth
- tumor weights compared to vehicle group (JIMT-1 xenografts; 25 mg/kg, po., 23 days): significantly lower
- tolerability (EMT6): well tolerated
- tumor growth inhibition (EMT6): significant tumor growth inhibition
- increased lifespan (EMT6; compared to vehicle): 57.1%
- median survival (EMT6; vehicle 14 days): 22 days
- logD [5]: 2.3
- IC50 (CYP2CD6): 18.5 µM
